# System: duckweed Lemna paucicostatag
# Assay: Lemna test, chlorophyll fluorescence
# Type: in vivo, Lemna minor
# Parameters: key: A herbicidal effect can be detected by comparison with an untreated control; it is identified in Table 1 by the symbol H
# Details: chlorophyll fluorescence vs untreated control; 5 mmol/l in DMSO diluted 1:5 in water, 25 μl in 0.5 ml nutrient solution
# Protocol: The effect of the herbicidal compounds according to the invention on the growth of the duckweed Lemna paucicostatag is evident from the following test results:
# Lemna minor was grown under nonsterile conditions in Petri dishes in 17 mmol/l MES buffer pH 5.5+1.5 mmol/l CaCl—2+1 g/l “Hakaphos spezial”.
# To carry out the test, the Lemna cultures are washed and singled out into 0.5 ml of fresh nutrient solution in 48-well microtiter plates. The active ingredients are dissolved in DMSO at a concentration of 5 mmol/l and diluted 1:5 in water. 25 μl of this solution are used in the test.
# The parameter measured is the fluorescence of the chlorophyll during the treatment. A herbicidal effect can be detected by comparison with an untreated control; it is identified in Table 1 by the symbol H.
row,Compound,Effect (herbicidal effect on growth of Lemna)
1,COc1cc(C(=S)N[C@H]2CC[C@@H](C(C)(C)C)CC2)ccc1OC(C)=O [No. 6],H
2,O=C(NNC(=O)c1sc2ccccc2c1Cl)Nc1cccc(Cl)c1 [No. 2],H
3,O=C(Nc1c(Cl)cc(Cl)cc1Cl)c1cccc(O)c1O [No. 5],H
4,O=c1[nH]c2ccccc2c(=O)n1CCN1CC2C[C@@H](c3cccc(Cl)c3)C2C1 (stereo partly shown) [No. 1],H
5,CC(=N\O)/C(=N/Nc1ccc(S(C)(=O)=O)cc1)c1ccc(Cl)cc1 [No. 3],H

# System: shikimate dehydrogenase
# Assay: not given
# Details: cited from earlier work
row,Compound,inhibitory effect on shikimate dehydrogenase
1,arsenites,inhibitory effect
2,[Zn+2] [Zn^2+],inhibitory effect
3,berates,inhibitory effect
4,CCN1C(=O)C=CC1=O [N-ethylmaleimides],inhibitory effect
5,O=S(=O)([O-])[O-].[Cd+2] [CdSO4],inhibitory effect
6,[Cl][Hg][Cl] [HgCl2],inhibitory effect
7,[Hg+2] [Hg^2+],inhibitory effect
8,p-chloromercuribenzoates,inhibitory effect
9,[Cu+2] [Cu^2+],inhibitory effect
10,O=S(=O)([O-])[O-].[Cu+2] [CuSO4],inhibitory effect
11,[Cl-].[Cl-].[Zn+2] [ZnCl2],inhibitory effect

# Target: T1, dehydroquinate dehydratase (Escherichia coli, UniProt P05194)
# T1 sequence (P05194 1-252): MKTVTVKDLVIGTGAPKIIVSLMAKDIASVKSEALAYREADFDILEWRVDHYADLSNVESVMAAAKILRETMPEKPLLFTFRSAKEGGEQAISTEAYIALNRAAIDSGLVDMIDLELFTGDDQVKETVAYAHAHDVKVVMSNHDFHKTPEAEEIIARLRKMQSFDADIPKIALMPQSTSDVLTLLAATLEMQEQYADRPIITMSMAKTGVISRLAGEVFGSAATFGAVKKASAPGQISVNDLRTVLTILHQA
# Assay: not given
# Details: in Escherichia coli; cited from earlier work
row,Compound,inhibitory effect on dehydroquinate dehydratase
1,D-(+)-tartrates,inhibitory effect
2,acetates,inhibitory effect
3,diethylcarbonates,inhibitory effect
4,succinates,inhibitory effect

# Target: dehydroquinate dehydratase/shikimate dehydrogenase (Nicotiana tabacum, UniProt Q6PUF9)
# Assay: shikimate dehydrogenase activity assay of Example 5A (NADPH formation, OD 334 nm)
# Type: biochemical
# Details: 0.1 mM shikimate, 0.1 mM NADP, pH 9.9
# Protocol: A. The shikimate dehydrogenase of the bifunctional dehydroquinate dehydratase/shikimate dehydrogenase enzyme catalyzes the following reaction:
# shikimate+NADP ? dehydroshikimate+NADPH
# The formation of NADPH can be measured over 10 minutes at an OD of 334 nm. The reaction is started by adding 1 microliter of the extracted crude protein. The reaction buffer contains:
# 100 mM glycine-NaOH, pH: 9.9;
# 0.1 mM shikimate (Sigma);
# The full-length dehydroquinate dehydratase/shikimate dehydrogenase gene was cloned into the pQE vector (FIG. 7) and transformed into E. coli. A single colony of this E. coli strain was incubated overnight at 37° C. in the growth medium “2xYT” (per liter: Bacto tryptone 16 g, yeast extract 10 g, NaCl 5 g, 50 mg/l ampicillin and 50 mg/l kanamycin). Next day, 50 ml of 2*YT were inoculated with 0.5 ml of the overnight culture and grown at 25° C. to an OD600 of 0.6. Gene expression was induced by addition of IPTG (final concentration: 0.05 mM) and incubation was continued for 3 hours at 25° C. The cells were harvested at 4° C. by centrifugation for 10 minutes at 8000 rpm. The pellet was taken up in 3 ml of extraction buffer (50 mM NaH2PO4, 300 mM NaCl, 10 mM imidazole, 15% glycerol, 5 mM mercaptoethanol). The pellet was frozen in liquid nitrogen and again defrosted on ice. The cells were disrupted by sonication (4×45 seconds, 1 minute on ice). The cells were spun down for 20 minutes at 4° C. and 1500 rpm, and the supernatent was used directly for the enzyme measurements.
# Six substances whose IC50 value is in the μM range were identified in a comprehensive screening based on the activity assay described in Example 5A (see Table 1).
# Sequence of dehydroquinate dehydratase/shikimate dehydrogenase (Q6PUF9 entry or part of it): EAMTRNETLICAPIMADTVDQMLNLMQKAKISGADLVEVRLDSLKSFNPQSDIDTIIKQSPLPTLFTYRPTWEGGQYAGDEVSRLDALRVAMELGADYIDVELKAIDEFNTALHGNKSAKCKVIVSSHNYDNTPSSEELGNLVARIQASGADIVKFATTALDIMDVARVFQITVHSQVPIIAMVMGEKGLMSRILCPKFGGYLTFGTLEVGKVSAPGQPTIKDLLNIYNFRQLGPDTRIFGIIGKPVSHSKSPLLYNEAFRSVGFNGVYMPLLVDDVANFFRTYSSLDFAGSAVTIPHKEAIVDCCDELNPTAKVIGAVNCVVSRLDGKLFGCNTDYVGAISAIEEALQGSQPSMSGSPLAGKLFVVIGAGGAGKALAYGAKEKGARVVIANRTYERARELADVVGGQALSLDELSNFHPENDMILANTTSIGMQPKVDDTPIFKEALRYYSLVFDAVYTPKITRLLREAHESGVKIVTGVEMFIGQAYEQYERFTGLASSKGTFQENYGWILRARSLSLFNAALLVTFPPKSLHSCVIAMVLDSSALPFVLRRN
row,Compound,IC50 [µM]
1,COc1cc(C(=S)N[C@H]2CC[C@@H](C(C)(C)C)CC2)ccc1OC(C)=O [No. 6],11
2,O=C(NNC(=O)c1sc2ccccc2c1Cl)Nc1cccc(Cl)c1 [No. 2],23
3,O=C(Nc1c(Cl)cc(Cl)cc1Cl)c1cccc(O)c1O [No. 5],3
4,O=c1[nH]c2ccccc2c(=O)n1CCN1CC2C[C@@H](c3cccc(Cl)c3)C2C1 (stereo partly shown) [No. 1],20
5,CC(=N\O)/C(=N/Nc1ccc(S(C)(=O)=O)cc1)c1ccc(Cl)cc1 [No. 3],7

# Source: patent US20030145348A1, “Dehydroquinate dehydrase/shikimate dehydrogenase as a herbicide target” (priority 2000, published 2003)
